Assay results: US9253987B2, “Antimicrobial agents and methods of use” (Hyprotek, Inc., priority 2010, dated 2016)

Test system: leukoplakia lesions within the oral cavity displaying invasive squamous cell carcinoma
Assay: Topical treatment of oral leukoplakia / squamous cell carcinoma lesion in a human subject
Assay type: in vivo
Conditions: same human subject, before the antimicrobial agent
Excerpt: In addition to the being diagnosed with chronic periodontitis, the subject developed leukoplakia lesions within the oral cavity displaying invasive squamous cell carcinoma with surrounding carcinoma-in-situ and dysplasia in the right mandibular gingival area. Visual inspection of the lesions appeared as white, translucent patches. […] Previously, the subject's dentists had attempted to treat the chronic periodontitis and leukoplakia with a succession of oral antibiotics, antifungal fluconazole and prolonged courses of chlorhexidine oral rinses, in addition to vigorous dental hygiene.
A single topical application of the antimicrobial agent of the present application in solution form was applied to the right lower mandibular gingival area while the right upper mandibular gingival area remained untreated. Visual inspection of the antimicrobial agent-treated area produced noticeable reduction in both the size and severity of the lesion within approximately 10 hours. Continued daily or twice-daily applications of the antimicrobial agent solution to the right lower mandibular gingival area over 12 days were effective to further reduce the lesion to approximately 1 mm. […] In contrast, the pathology of the untreated right upper mandibular gingival area continued to display signs of invasive squamous cell carcinoma and was only finally removed by surgery post treatment.

Compound: [H]/N=C(\N/C(=N/[H])NCCCCCCNC(=N)NC(=N)Nc1ccc(Cl)cc1)Nc1ccc(Cl)cc1 [chlorhexidine]
- outcome of previous therapy of chronic periodontitis and leukoplakia: failed significantly to improve their condition

Compound: OC(Cn1cncn1)(Cn1cncn1)c1ccc(F)cc1F [fluconazole]
- outcome of previous therapy of chronic periodontitis and leukoplakia: failed significantly to improve their condition
